Measurements published in US20150157588A1, “Pharmaceutical Composition Comprising Amino-Phenyl-Acetic Acid Octadec-(Z)-9-enyl Ester and Use Thereof for Treating Tumors” (Yeda Research and Development Co., Ltd., priority 2012, published 2015).

Columns and labels:
[1] = tested on: human peripheral blood T cells; experiment: Apoptosis by FACS, hypo-diploid nuclei PI staining, healthy T cells; format: cell-based; settings: 10 μg in ethanol solution, versus control molecule
Experimental: White bars (left bar of each pair) represent cells treated with 10 μg of amino-phenyl-acetic acid octadec-(Z)-9-enyl ester in ethanol solution, and black bars (right bar of each pair) represent cells treated with 10 μg of the control molecule 4-methyl-piperazino-acetic acid ethyl ester in ethanol solution. The two bars on the left represent freshly isolated T cells and the two bars on the right represent transformed Jurkat cells.
(§1) B or T-cell apoptosis was detected by flow cytometry. Briefly, purified cells were seeded in 24 well plates, 5×10^5 per well, and incubated for 48 h at 37° C. 5% CO2 in the presence of HSP60 (heat shock protein 60) at the indicated concentration of amino-phenyl-acetic acid octadec-(Z)-9-enyl ester. […] The cells were then subjected to flow cytometric analysis; for each sample 10,000 were collected and cell-cycle distribution was analyzed according to relative DNA content (PI staining). […] The cells were then collected, stained by APO-DIRECT TUNNEL kit (Phnxflow, CITY, Calif., USA); mitochondrial potential was measured by DePsipher (R&D Systems, Minneapolis, Minn.) according to the manufacturer's procedure. Intracellular caspase activity was measured by Apostat kit (R&D Systems), according to the manufacturer's procedure. The cells were analyzed by Flow cytometry using FACSort (Becton Dickinson) and CellQuest software (Becton Dickinson).

[2] = tested on: p53 expressing L-12 mouse B cell line; experiment: Apoptosis by hypo-diploid nuclei PI staining, transformed B cell line; format: cell-based; settings: 10 or 100 μg per ml in 5% ethanol solution, 48 h
Experimental: Apoptosis was measured by FACS analysis with a hypo-diploid nuclei propidium iodide (PI) staining of an amino-phenyl-acetic acid octadec-(Z)-9-enyl ester treated p53 expressing L-12 mouse B cell line. FIGS. 4A-4C: L-12 cells treated with 0, 10 or 100 μg/ml of amino-phenyl-acetic acid octadec-(Z)-9-enyl ester in ethanol solution, respectively; FIGS. 4D-4F: L-12 cells treated with 0, 10 or 100 μg/ml of the control reagent 4-methyl-piperazino-acetic acid ethyl ester in ethanol solution, respectively; and FIGS. 4G-4I: L-12 cells treated with an ethanol volume corresponding to 0, 10 or 100 μg/ml of amino-phenyl-acetic acid octadec-(Z)-9-enyl ester, respectively. FL2-A is the measure of fluorescence. […]
as §1, with “cytometry.” for “cytometry. Briefly, purified cells were seeded in 24 well plates, 5×10^5 per well, and incubated for 48 h at 37° C. 5% CO2 in the presence of HSP60 (heat shock protein 60) at the indicated concentration of amino-phenyl-acetic acid octadec-(Z)-9-enyl ester.”, “Dickinson). […]” for “Dickinson).”

[3] = Light scattering at 90 degrees of aggregates in PBS with 0-20% ethanol; format: physicochemical; set-up: key to intensity of light scattering, relative scale: relative light-scattering intensity; 0% ethanol = 100; settings: 10 μM in PBS; for intensity of light scattering, relative scale: 90 degrees, 560 nm
Experimental: Light scattering at 90 degrees can be used to assess the amount of aggregates in a solution. Higher readings are indicative of a higher degree of aggregation, while lower readings are indicative of disintegration of aggregates into monomers. A series of 10 μM amino-phenyl-acetic acid octadec-(Z)-9-enyl ester solutions was prepared in PBS containing ethanol concentrations of 0-20%. The intensity of light scattering of each solution was recorded at 90 degrees with a 560 nm beam in a Perkin Elmer fluorimeter. The results, presented in a relative scale with respect to the percent ethanol (% ethanol indicated in brackets), were as follows: 100 (0); 98 (0.5); 90 (1): 75 (2); 45(3); 26 (4); 10 (5); 8 (10); 6 (20).

CCCCCCCC/C=C\CCCCCCCCOC(=O)C(N)c1ccccc1 (stereo not drawn) [amino-phenyl-acetic acid octadec-(Z)-9-enyl ester]
apoptosis [1]: no more apoptosis than with a control molecule | apoptosis / cell cycle (cells in sub-GO state) [2]: induced massive apoptosis | ethanol concentration in whose presence micellar aggregates disintegrate [3]: above 4 % ethanol | intensity of light scattering, relative scale ([3]; 0% ethanol): 100 | intensity of light scattering, relative scale ([3]; 0.5% ethanol): 98 | intensity of light scattering, relative scale ([3]; 1% ethanol): 90 | intensity of light scattering, relative scale ([3]; 2% ethanol): 75 | intensity of light scattering, relative scale ([3]; 3% ethanol): 45 | intensity of light scattering, relative scale ([3]; 4% ethanol): 26 | intensity of light scattering, relative scale ([3]; 5% ethanol): 10 | intensity of light scattering, relative scale ([3]; 10% ethanol): 8 | intensity of light scattering, relative scale ([3]; 20% ethanol): 6
